Test results published in patent US20240376094A2, “SELECTIVE BCL-XL PROTAC COMPOUNDS AND METHODS OF USE” (Les Laboratoires Servier, priority 2021, published 2024).

Legend:
Bcl-xL = biological target: T1, Bcl-xL (Homo sapiens, UniProt Q07817); assay: HCT116 Bcl-xL degradation, capillary-based immunoassay (WES); assay type: cell-based; settings: for DC50: HCT116, 24 h, 9-point serial dilution
T1 construct: Measured levels of Bcl-xL protein of HCT116 cells treated with the tested compounds; host or cells: HCT116
Method: HCT116 cells were purchased from ATCC and cultivated in RPMI 1640 supplemented with 10% heat inactivated fetal bovine serum, penicillin (100 IU/mi), streptomycin (100 μg/ml) and L-glutamine (2 mM). Cells were cultured at 37° C. in a humidified atmosphere containing 5% CO2. Cells were seeded in 96 microwell plates, 24 h later cells were treated with compounds (2-point 10/100 nM and/or 9-point serial dilution to determine DC50; quadruplicates) during 24 h and harvested in lysis buffer containing 10 mM Hepes (pH 7.5), 150 mM KCl, 5 mM MgCl2, 1 mM EDTA, 0.4% TritonX100, protease and phosphatase inhibitors cocktails (Calbiochem).
Protein concentration in the supernatants was determined using the Pierce BCA protein assay kit (Thermo Fisher Scientific). Lysates (1.5 μg/μL) were analyzed using an automated capillary electrophoresis WES system with 2-40 kDa Wes Separation Module (25 capillary cartridges, Proteinsimple), in accordance with the manufacturer's protocols. Antibodies against the following proteins were used: Bcl-xL (#2764, Cell Signaling Technology, 1:50) and cofilin (#5175, Cell Signaling Technology, 1:1000). Signals were detected with an HRP-conjugated secondary anti-rabbit antibody (#042-206, Proteinsimple) and were quantified using Compass software (version 4.0, Proteinsimple).
Bcl-xL level was calculated by normalizing Bcl-xL values to cofilin and expressed as a percentage of the normalized value of the untreated cells. DC50 were calculated using standard four-parametric curve fitting. DC50 is defined as the compound concentration at which Bcl-xL is reduced to 50% of that measured for the control. Measured levels of Bcl-xL protein of HCT116 cells treated with the tested compounds at 2-point 10 nM/100 nM and/or 9-point for DC50 determination are shown in Table 15.

MOLT-4 cells = assay: MOLT-4 cell viability, CTG assay; assay type: cell-based; settings: Homo sapiens, MOLT-4, 48 h
Description: The MTT colorimetric assay is based on the mitochondrial reduction of tetrazolium salt by living cells. The viable cell number is proportional to the production of formazan salts, which can be read spectrophotometrically at 540 nm. The CTG luminescent assay (CellTiter GLO, Promega) is based on a reagent which lyses cells and measures total adenosine triphosphate (ATP) content. The viable cell number is proportional to the production of ATP.
MOLT-4 cells were purchased from ATCC and cultivated in RPMI 1640 supplemented with 10% heat inactivated fetal bovine serum, penicillin (100 IU/mi), streptomycin (100 μg/ml) and L-glutamine (2 mM). Cells were cultured at 37° C. in a humidified atmosphere containing 5% […].
For CTG assay, cells were seeded in 384 microwell plates (40 μL per well) and exposed to the compounds for 48 h (11-point serial dilution with 5-fold factor, triplicates). At the end of incubation time, 40 μL of CTG solution were added per well. Wells were mixed thoroughly, and plates were incubated at room temperature for 10 minutes to stabilize luminescent signals prior to reading using a luminescence reader (PHERAStar FSX Reader, BMG Labtech).
IC50, were calculated using standard four-parametric curve fitting. IC50 is defined as the compound concentration at which the MTT or CTG signal is reduced to 50% of that measured for the control. Results shown in Table 14 represent the mean of at least 2 independent experiments.

T1 sequence (Q07817 whole entry): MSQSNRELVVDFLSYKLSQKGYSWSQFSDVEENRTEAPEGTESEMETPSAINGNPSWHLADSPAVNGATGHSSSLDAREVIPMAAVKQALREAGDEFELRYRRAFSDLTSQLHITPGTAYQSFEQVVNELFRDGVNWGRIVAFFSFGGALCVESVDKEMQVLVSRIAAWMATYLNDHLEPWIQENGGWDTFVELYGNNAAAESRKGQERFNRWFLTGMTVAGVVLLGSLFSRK

SMILES	DC50 (Bcl-xL) [nM]	IC50 (MOLT-4 cells) [nM]	remaining activity at 0.01 µM (Bcl-xL; HCT-116, HCT116, 10 nM, 24 h, % of untreated cells) [%]	remaining activity at 0.1 µM (Bcl-xL; HCT-116, HCT116, 100 nM, 24 h, % of untreated cells) [%]
CN[C@@H](C)C(=O)N[C@H](C(=O)N1CCC[C@H]1c1nc(C(=O)c2cccc(OCCCCCCN(C)CCOC34CC5(C)CC(C)(CC(Cn6ncc(-c7ccc(N8CCCc9c8nnc(Nc8nc%10ccccc%10s8)c9C)nc7C(=O)O)c6C)(C5)C3)C4)c2)cs1)C1CCCCC1 [Example 102, 6-[3-(1,3-benzothiazol-2-ylamino)-4-methyl-6,7-dihydro-5H-pyrido[2,3-c]pyridazin-8-yl]-3-[1-[[3-[2-[6-[3-[2-[(2S)-1-[(2S)-2-cyclohexyl-2-[[(2S)-2-(methylamino)propanoyl]amino]acetyl]pyrrolidin-2-yl]thiazole-4-carbonyl]phenoxy]hexyl-methyl-amino]ethoxy]-5,7-dimethyl-1-adamantyl]methyl]-5-methyl-pyrazol-4-yl]pyridine-2-carboxylic acid]	0.448	4.07		
Cc1c(Nc2nc3ccccc3s2)nnc2c1CCCN2c1ccc(-c2cnn(CC34CC5(C)CC(C)(C3)CC(OCCN(C)CCCCCOc3ccc6c(c3)C(=O)N(C3CCC(=O)NC3=O)C6=O)(C5)C4)c2C)c(C(=O)O)n1 (stereo not drawn) [Example 107, 6-[3-(1,3-benzothiazol-2-ylamino)-4-methyl-6,7-dihydro-5H-pyrido[2,3-c]pyridazin-8-yl]-3-[1-[[3-[2-[5-[2-(2,6-dioxo-3-piperidyl)-1,3-dioxo-isoindolin-5-yl]oxypentyl-methyl-amino]ethoxy]-5,7-dimethyl-1-adamantyl]methyl]-5-methyl-pyrazol-4-yl]pyridine-2-carboxylic acid]	0.739	4.72		
Cc1c(Nc2nc3ccccc3s2)nnc2c1CCCN2c1ccc(-c2cnn(CC34CC5(C)CC(C)(C3)CC(OCCN(C)CCOCCOCCOCCOCCNc3cccc6c3C(=O)N(C3CCC(=O)NC3=O)C6=O)(C5)C4)c2C)c(C(=O)O)n1 (stereo not drawn) [Example 132, 6-[3-(1,3-benzothiazol-2-ylamino)-4-methyl-6,7-dihydro-5H-pyrido[2,3-c]pyridazin-8-yl]-3-[1-[[3-[2-[2-[2-[2-[2-[2-[[2-(2,6-dioxo-3-piperidyl)-1,3-dioxo-isoindolin-4-yl]amino]ethoxy]ethoxy]ethoxy]ethoxy]ethyl-methyl-amino]ethoxy]-5,7-dimethyl-1-adamantyl]methyl]-5-methyl-pyrazol-4-yl]pyridine-2-carboxylic acid]		26.6	108	103
Cc1c(Nc2nc3ccccc3s2)nnc2c1CCCN2c1ccc(-c2cnn(CC34CC5(C)CC(C)(C3)CC(OCCN(C)CCCCCCOc3cccc6c3C(=O)N(C3CCC(=O)NC3=O)C6=O)(C5)C4)c2C)c(C(=O)O)n1 (stereo not drawn) [Example 141, 6-[3-(1,3-benzothiazol-2-ylamino)-4-methyl-6,7-dihydro-5H-pyrido[2,3-c]pyridazin-8-yl]-3-[1-[[3-[2-[6-[2-(2,6-dioxo-3-piperidyl)-1,3-dioxo-isoindolin-4-yl]oxyhexyl-methyl-amino]ethoxy]-5,7-dimethyl-1-adamantyl]methyl]-5-methyl-pyrazol-4-yl]pyridine-2-carboxylic acid]	> 316	10.4		
Cc1c(Nc2nc3ccccc3s2)nnc2c1CCCN2c1ccc(-c2cnn(CC34CC5(C)CC(C)(C3)CC(OCCN(C)CCCCCCCCOc3cccc6c3C(=O)N(C3CCC(=O)NC3=O)C6=O)(C5)C4)c2C)c(C(=O)O)n1 (stereo not drawn) [Example 143, 6-[3-(1,3-benzothiazol-2-ylamino)-4-methyl-6,7-dihydro-5H-pyrido[2,3-c]pyridazin-8-yl]-3-[1-[[3-[2-[8-[2-(2,6-dioxo-3-piperidyl)-1,3-dioxo-isoindolin-4-yl]oxyoctyl-methyl-amino]ethoxy]-5,7-dimethyl-1-adamantyl]methyl]-5-methyl-pyrazol-4-yl]pyridine-2-carboxylic acid]	> 316	5.28		

Now those with a lower IC50 (MOLT-4 cells), led by results:

DC50 (Bcl-xL) [nM]	IC50 (MOLT-4 cells) [nM]	remaining activity at 0.01 µM (Bcl-xL; HCT-116, HCT116, 10 nM, 24 h, % of untreated cells) [%]	remaining activity at 0.1 µM (Bcl-xL; HCT-116, HCT116, 100 nM, 24 h, % of untreated cells) [%]	SMILES
0.0184	1.74			Cc1c(Nc2nc3ccccc3s2)nnc2c1CCCN2c1ccc(-c2cnn(CC34CC5(C)CC(C)(C3)CC(OCCN(C)CCCCCCCCCOc3ccc6c(c3)C(=O)N(C3CCC(=O)NC3=O)C6=O)(C5)C4)c2C)c(C(=O)O)n1 (stereo not drawn) [Example 104, 6-[3-(1,3-benzothiazol-2-ylamino)-4-methyl-6,7-dihydro-5H-pyrido[2,3-c]pyridazin-8-yl]-3-[1-[[3-[2-[9-[2-(2,6-dioxo-3-piperidyl)-1,3-dioxo-isoindolin-5-yl]oxynonyl-methyl-amino]ethoxy]-5,7-dimethyl-1-adamantyl]methyl]-5-methyl-pyrazol-4-yl]pyridine-2-carboxylic acid]
0.0447	1.75			Cc1c(Nc2nc3ccccc3s2)nnc2c1CCCN2c1ccc(-c2cnn(CC34CC5(C)CC(C)(C3)CC(OCCN(C)CCCCCCCCCCCOc3ccc6c(c3)C(=O)N(C3CCC(=O)NC3=O)C6=O)(C5)C4)c2C)c(C(=O)O)n1 (stereo not drawn) [Example 105, 6-[3-(1,3-benzothiazol-2-ylamino)-4-methyl-6,7-dihydro-5H-pyrido[2,3-c]pyridazin-8-yl]-3-[1-[[3-[2-[11-[2-(2,6-dioxo-3-piperidyl)-1,3-dioxo-isoindolin-5-yl]oxyundecyl-methyl-amino]ethoxy]-5,7-dimethyl-1-adamantyl]methyl]-5-methyl-pyrazol-4-yl]pyridine-2-carboxylic acid]
0.211	2.63			Cc1c(Nc2nc3ccccc3s2)nnc2c1CCCN2c1ccc(-c2cnn(CC34CC5(C)CC(C)(C3)CC(OCCN(C)CCCCCCCOc3ccc6c(c3)C(=O)N(C3CCC(=O)NC3=O)C6=O)(C5)C4)c2C)c(C(=O)O)n1 (stereo not drawn) [Example 106, 6-[3-(1,3-benzothiazol-2-ylamino)-4-methyl-6,7-dihydro-5H-pyrido[2,3-c]pyridazin-8-yl]-3-[1-[[3-[2-[7-[2-(2,6-dioxo-3-piperidyl)-1,3-dioxo-isoindolin-5-yl]oxyheptyl-methyl-amino]ethoxy]-5,7-dimethyl-1-adamantyl]methyl]-5-methyl-pyrazol-4-yl]pyridine-2-carboxylic acid]
0.266	3.93			Cc1c(Nc2nc3ccccc3s2)nnc2c1CCCN2c1ccc(-c2cnn(CC34CC5(C)CC(C)(C3)CC(OCCN(C)CCCCCCCCCCCCCOc3ccc6c(c3)C(=O)N(C3CCC(=O)NC3=O)C6=O)(C5)C4)c2C)c(C(=O)O)n1 (stereo not drawn) [Example 115, 6-[3-(1,3-benzothiazol-2-ylamino)-4-methyl-6,7-dihydro-5H-pyrido[2,3-c]pyridazin-8-yl]-3-[1-[[3-[2-[13-[2-(2,6-dioxo-3-piperidyl)-1,3-dioxo-isoindolin-5-yl]oxytridecyl-methyl-amino]ethoxy]-5,7-dimethyl-1-adamantyl]methyl]-5-methyl-pyrazol-4-yl]pyridine-2-carboxylic acid]
0.341	3.76			Cc1c(Nc2nc3ccccc3s2)nnc2c1CCCN2c1ccc(-c2cnn(CC34CC5(C)CC(C)(C3)CC(OCCN(C)CCCCCCCCCCCCCCOc3ccc6c(c3)C(=O)N(C3CCC(=O)NC3=O)C6=O)(C5)C4)c2C)c(C(=O)O)n1 (stereo not drawn) [Example 142, 6-[3-(1,3-benzothiazol-2-ylamino)-4-methyl-6,7-dihydro-5H-pyrido[2,3-c]pyridazin-8-yl]-3-[1-[[3-[2-[14-[2-(2,6-dioxo-3-piperidyl)-1,3-dioxo-isoindolin-5-yl]oxytetradecyl-methyl-amino]ethoxy]-5,7-dimethyl-1-adamantyl]methyl]-5-methyl-pyrazol-4-yl]pyridine-2-carboxylic acid]
